Assays:
Type in all cases: binding
[1] = target: T1, EcDnaB (Escherichia coli, UniProt P0ACB0); test: negative-stain EM 2D class averages
[2] = target: T1, EcDnaB; test: negative-stain EM 2D class averages and SAXS; settings: 0-1 mM AMPPNP in SAXS
[3] = target: T2, GstDnaB (Geobacillus stearothermophilus, UniProt Q9X4C9); test: negative-stain EM 2D class averages
T2 sequence (Q9X4C9 1-454): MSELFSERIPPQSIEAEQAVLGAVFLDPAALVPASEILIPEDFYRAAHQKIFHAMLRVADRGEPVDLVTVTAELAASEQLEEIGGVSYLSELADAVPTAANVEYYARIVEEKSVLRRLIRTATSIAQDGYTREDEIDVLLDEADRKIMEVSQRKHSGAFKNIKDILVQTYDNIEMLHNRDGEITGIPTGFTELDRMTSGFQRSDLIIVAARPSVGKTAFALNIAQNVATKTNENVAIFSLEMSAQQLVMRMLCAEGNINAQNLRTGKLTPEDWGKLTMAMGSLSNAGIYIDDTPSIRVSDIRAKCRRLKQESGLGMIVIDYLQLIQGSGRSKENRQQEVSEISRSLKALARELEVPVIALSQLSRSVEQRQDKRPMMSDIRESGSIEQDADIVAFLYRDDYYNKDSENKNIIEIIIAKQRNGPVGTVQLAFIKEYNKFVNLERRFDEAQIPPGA

T1 sequence (P0ACB0 2-471): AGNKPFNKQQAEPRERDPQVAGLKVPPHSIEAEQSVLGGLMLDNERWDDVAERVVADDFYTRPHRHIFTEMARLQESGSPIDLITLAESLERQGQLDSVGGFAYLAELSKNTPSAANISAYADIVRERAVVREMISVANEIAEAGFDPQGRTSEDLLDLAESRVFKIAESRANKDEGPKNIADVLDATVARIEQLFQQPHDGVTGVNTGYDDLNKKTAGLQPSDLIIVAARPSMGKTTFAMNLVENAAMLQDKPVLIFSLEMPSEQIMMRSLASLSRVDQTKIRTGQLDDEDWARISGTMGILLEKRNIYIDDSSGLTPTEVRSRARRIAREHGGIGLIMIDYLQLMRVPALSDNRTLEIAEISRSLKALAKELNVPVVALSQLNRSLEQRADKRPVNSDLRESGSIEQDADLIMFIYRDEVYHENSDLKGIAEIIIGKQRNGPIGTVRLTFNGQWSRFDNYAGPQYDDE

SMILES: Nc1ncnc2c1ncn2[C@@H]1O[C@H](COP(=O)(O)OP(=O)(O)OP(O)(O)=S)[C@@H](O)[C@H]1O [ATPγS]
- negative-stain EM 2D class averages (collar constriction) [1]: two kinds of 2D class averages were observed for EcDnaB in the presence of ATPγS

SMILES: Nc1ncnc2c1ncn2[C@@H]1O[C@H](COP(=O)(O)OP(=O)(O)NP(=O)(O)O)[C@@H](O)[C@H]1O [AMPPNP]
- negative-stain EM 2D class averages and SAXS (collar constriction) [2]: two kinds of 2D class averages were observed for EcDnaB in the presence of ATPγS

SMILES: Nc1ncnc2c1ncn2[C@@H]1O[C@H](COP(=O)(O)OP(=O)(O)OP(=O)(O)O)[C@@H](O)[C@H]1O [ATP]
- negative-stain EM 2D class averages (collar constriction) [3]: 2D EM analysis again revealed evidence for a constricted species in the presence of ATP
